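Dose response: 5 concentrations. Exposure: 48 h. Format: 96-well plates. Endpoint: linear interpolation; highest concentration if not reached. Abbreviation: GI50, concentration required for 50% inhibition of growth. TGI is the concentration that stops growth completely.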
Legend:
Experiment in all cases: NCI anticancer screen, dose series, 48 h
OVCAR-4 ovarian = test system: OVCAR-4 ovarian
IGROV1 ovarian = test system: IGROV1 ovarian
EKVX NSCLC = test system: EKVX NSCLC
HOP-62 NSCLC = test system: HOP-62 NSCLC
SK-MEL-5 melanoma = test system: SK-MEL-5 melanoma
HL-60(TB) leukemia = test system: HL-60(TB) leukemia
786-0 renal = test system: 786-0 renal
HCT-116 colon = test system: HCT-116 colon
SNB-75 CNS = test system: SNB-75 CNS
HCT-15 colon = test system: HCT-15 colon

SMILES | GI50 (OVCAR-4 ovarian) [µM] | TGI (OVCAR-4 ovarian) [µM] | GI50 (IGROV1 ovarian) [µM] | TGI (IGROV1 ovarian) [µM] | GI50 (EKVX NSCLC) [µM] | TGI (EKVX NSCLC) [µM] | GI50 (HOP-62 NSCLC) [µM] | TGI (HOP-62 NSCLC) [µM] | GI50 (SK-MEL-5 melanoma) [µM] | TGI (SK-MEL-5 melanoma) [µM] | GI50 (HL-60(TB) leukemia) [µM] | TGI (HL-60(TB) leukemia) [µM] | GI50 (786-0 renal) [µM] | TGI (786-0 renal) [µM] | GI50 (HCT-116 colon) [µM] | TGI (HCT-116 colon) [µM] | GI50 (SNB-75 CNS) [µM] | TGI (SNB-75 CNS) [µM] | GI50 (HCT-15 colon) [µM] | TGI (HCT-15 colon) [µM]
CCOc1ccc(S(=O)(=O)/N=C2\C=C(SCC(=O)O)C(=O)c3ccccc32)cc1 | 2.16 | 6.31 | 2.14 | 4.34 | 3.29 | 11.3 | 20.7 | 44.8 | 1.72 | 3.1 | 2.35 | 6.99 | 17.4 | 36 | 2.67 | 10.3 | 2.5 | 4.96 | 4.77 | 17.2
Cc1cc2nc3c4cc(Cl)ccc4n(CCN(C)C)c3nc2cc1C | 1.72 | 9.08 | 1.35 | 3.86 | 2.45 | 6.77 | 1.53 | 4.57 | 1.8 | 3.22 | 1.93 | 4.33 | 1.81 | 4.22 | 0.7 | 2.08 | 0.738 | 6.24 | 0.821 | 4.7
O=C1NC2(CCCC2)C(=O)C12CCCC2 | – | > 100 | – | > 100 | – | > 100 | – | > 100 | – | > 100 | – | > 100 | – | > 100 | – | > 100 | – | > 100 | – | > 100
C=C1C(=O)O[C@H]2[C@H]1CC/C(CNC(=O)c1c[nH]c3ccc(F)cc13)=C\CC[C@@]1(C)O[C@@H]21 | 3.17 | 15.2 | 1.63 | 5.47 | 1.68 | 5.6 | 4.12 | 19.7 | 2.25 | 5.56 | 2.18 | 5.95 | 1.33 | 2.85 | 0.632 | 1.98 | 1.81 | 16.2 | 0.732 | 2.21
COc1ccc(/C=C/C=C(/C#N)C(N)=S)cc1 | 27.9 | > 100 | 28.3 | > 100 | 77.3 | > 100 | 29.8 | 94.9 | 18.3 | 36.4 | 26 | > 100 | 33.3 | > 100 | 15.6 | 31 | 29.7 | 99.6 | 25.4 | 82.8
CC(C)(C)OC(=O)n1cc(CNC(=S)Nc2ccccc2)c2ccccc21 | 49.4 | > 100 | 27.6 | > 100 | 4.15 | 21.5 | 17.2 | 38 | 4.51 | 16.6 | 11.6 | 55.3 | 17.7 | 34.5 | 15.2 | 30.1 | 64.4 | > 100 | 10.9 | 22.9
FC(F)(F)c1nc(-c2ccccc2Cl)[nH]c1C(F)(F)F | – | 22.1 | – | 8.97 | – | 2.25 | – | 1.35 | – | 0.833 | – | 1.22 | – | 4.73 | – | 2.15 | – | 5 | – | 3.52
O=C(c1ccc2ccccc2c1)c1c(C(F)(F)F)n([O-])c2cc(Cl)c(Cl)cc2[n+]1=O | 1.54 | 3.17 | 1.3 | 2.56 | 2.04 | 3.47 | 1.64 | 3.03 | 1.6 | 2.94 | 1.81 | 3.87 | 1.69 | 3.06 | 1.58 | 2.92 | 1.48 | 2.8 | 1.56 | 2.97
Cc1cc2c(cc1C)[n+](=O)c(C(=O)C/C(=N/NC(=O)c1ccccc1O)C(=O)Nc1ccccc1C(C)C)c(C)n2[O-] | – | > 100 | – | > 100 | – | > 100 | – | > 100 | – | > 100 | – | 37.9 | – | > 100 | – | > 100 | – | > 100 | – | > 100
NC(CO)Cc1cnc[nH]1 (centres undefined) | – | > 10 | > 100 | > 100 | > 100 | > 100 | > 100 | > 100 | > 100 | > 100 | > 100 | > 100 | > 100 | > 100 | > 100 | > 100 | > 100 | > 100 | > 100 | > 100
COC(=O)C(=O)CC(=O)CCn1ncc(Cl)c(Cl)c1=O | – | 6.61 | – | 33.4 | – | 33.8 | – | 42.1 | – | 30.8 | – | 9.68 | – | 43.6 | – | 23.7 | – | 35.6 | – | 15.7
C[C@@H]1CC[C@@H]2[C@@H]1[C@H](OC(=O)/C=C/c1ccccc1)[C@]1(c3ccccc3)C[C@@H](OC(=O)CO)[C@@]2(C)O1 | 12.3 | 27.3 | 17 | 44.5 | 12.6 | 35.8 | 16.2 | 31.1 | 13.4 | 26.2 | 14.9 | 53.9 | 11.7 | 29.3 | 12.7 | 27.6 | 11.6 | 37.9 | 12.7 | 32.7
CC(=O)OCC1OC(O[C@@H]2C[C@H]3C(C)(C)[C@H](OC(C)=O)CC[C@]3(C)[C@H]3CCC4=C([C@@H](C)C[C@@H](O)[C@H](O)C(C)(C)O)CC[C@@]4(C)[C@@]32C)C(O)C(O)C1O (some centres undefined) | 17 | 31.1 | 16.3 | 30.1 | 16.9 | 31 | 16.2 | 30 | 16.2 | 29.7 | 13 | 28.8 | 18.2 | 32.7 | 14.2 | 27.2 | 13.2 | 26 | 17.1 | 30.8

Source: PubChem BioAssay (NCI)
